# Measurements from patent publication US20120245344A1 (NIPPON CHEMIPHAR CO., LTD., priority 2009, published 2012).
# pEC50: −log10 of the molar value.
# Molecular target: T1, human GPR119 (Homo sapiens, UniProt Q8TDV5)
# T1 construct: expressed in transfected cells; host or cells: Flp-in T-Rex-293 cells (Invitrogen #R78007), plasmid pcDNA5/FRT/TO, expression induced with tetracycline
# T1 sequence (Q8TDV5 1-335): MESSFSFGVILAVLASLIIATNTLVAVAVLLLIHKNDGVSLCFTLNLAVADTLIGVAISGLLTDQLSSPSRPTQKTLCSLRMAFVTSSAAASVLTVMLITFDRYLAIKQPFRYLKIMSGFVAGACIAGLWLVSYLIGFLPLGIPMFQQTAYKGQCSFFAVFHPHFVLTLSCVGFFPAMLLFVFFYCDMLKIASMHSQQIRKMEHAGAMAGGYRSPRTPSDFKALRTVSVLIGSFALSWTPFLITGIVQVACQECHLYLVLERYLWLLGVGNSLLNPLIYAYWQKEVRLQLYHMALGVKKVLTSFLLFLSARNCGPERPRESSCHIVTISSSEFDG
# Assay: Measurement of intracellular cAMP in stable cell line expressing human GPR119 (GPR119 agonist effect)
# Format: cell-based
# Conditions: for pEC50: increase of intracellular cAMP, Flp-in T-Rex-293 cells expressing human GPR119, 37° C. for 30 minutes
# Description: The GPR119 agonist effect is studied by measuring the effect of an analyte on increase of intracellular amount of cAMP in human GPR119 introduced cells. The testing method is described below.
# Human GPR119 gene (NM 178471) is purchased from ATCC (ATCC No. 10807349), and is amplyfied according to PCR to form BamHI site at 5′ side and Apa I site at 3′ side. The primers are […] (sequence No. 1) and […] (sequence No. 2). The PCR conditions are described below.
# The double-stranded DNA is thermally denatured using a DNA polymerase (KOD-Plus-Ver. 2; TOYOBO #KOD-211) at 98° C. for 10 seconds in one cycle. The denatured single-stranded DNA is annealed with the primers at 55° C. for 30 seconds. The DNA is subjected to an extension reaction at 68° C. for 1 minute and 15 seconds. The above-mentioned steps are repeated in 35 cycles. The PCR product is inserted into pcDNA5/FRT/TO (Invitrogen #V6520-20) plasmid. Flp-in T-Rex-293 cells (Invitorogen #R78007) are transfected with the obtained plasmid. The method of transfection is conducted in accordance with the protocol of the product.
# (§1) The stable cell line expressing human GPR119 prepared in the above-mentioned method is plated on a 96-well plate at the concentration of 2,500 cells/well using Dulbecco's Modified Eagle Medium (DMEM) containing 10% fetal bovine serum (FBS). Twenty-four hours after plating, tetracyclin (Invitrogen #Q10019) is added at the final concentration of 20 ng/mL to induce hGPR119 gene expression. Twenty-four hours after, the medium is removed, and the cells are stimulated with an assay buffer (0.5 mM IBMX PBS (−)) containing the test compound at 37° C. for 30 minutes. The amount of the intracellular cAMP is measured using a commercially available kit (HitHunter™ cAMP XS+Assay: GE Healthcare #90007503) and a reader (FLUOstar Optima: BMG LABTECH). The test compound is dissolved in 100% DMSO, and added at the final concentration of 1%.
# Human GPR119 gene (NM 178471) was purchased from ATCC (ATCC No. 10807349), and is amplyfied according to PCR to form BamHI site at 5′ side and Apa I site at 3′ side. The primers were […] (sequence No. 1) and […] (sequence No. 2). The PCR conditions are described below. The double-stranded DNA was thermally denatured using a DNA polymerase (KOD-Plus-Ver. 2; TOYOBO #KOD-211) at 98° C. for 10 seconds in one cycle. The denatured single-stranded DNA was annealed with the primers at 55° C. for 30 seconds. The DNA was subjected to an extension reaction at 68° C. for 1 minute and 15 seconds. The above-mentioned steps were repeated in 35 cycles. The PCR product was inserted into pcDNA5/FRT/TO (Invitrogen #V6520-20) plasmid. Flp-in T-Rex-293 cells (Invitorogen #R78007) were transfected with the obtained plasmid. The method of transfection was conducted in accordance with the protocol of the product.
# as §1, with “method was” for “method is”, “#Q10019) was” for “#Q10019) is”, “medium was” for “medium is”, “cells were” for “cells are”, “cAMP was” for “cAMP is”, “compound was” for “compound is”
# The examination was performed by the method similar to Example 87 Pharmacological experiment 1-(1), -(2).
Structure (SMILES),pEC50,GPR119 agonist effect (in words) (statement in words on Tables 10 to 13)
"CC(C)(C)OC(=O)N1CCC(c2ccc(Cn3ccc4cc(S(C)(=O)=O)cc(N)c43)nc2)CC1 [Example 19, tert-Butyl 4-[2-(7-amino-5-methanesulfonylindol-1-ylmethyl)pyridin-5-yl]piperidine-1-carboxylate]",6.74,–
"CC(C)(C)OC(=O)N1CCC(c2ccc(Cn3ccc4cc(S(C)(=O)=O)cc([N+](=O)[O-])c43)nc2)CC1 [Example 18, tert-Butyl 4-[2-(5-methanesulfonyl-7-nitroindol-1-ylmethyl)pyridin-5-yl]piperidine-1-carboxylate]",7.59,–
"CC(C)(C)OC(=O)N1CCC(c2ccc(Cn3ncc4cc(S(C)(=O)=O)ccc43)nc2)CC1 [Example 21, tert-Butyl 4-[2-(5-methanesulfonylindazol-1-ylmethyl)pyridin-5-yl]piperidine-1-carboxylate]",6.37,–
CC(C)(C)OC(=O)N1CCCC(c2ccc(Cn3ccc4cc(S(C)(=O)=O)ccc43)nc2)CC1 (stereo not drawn) [Example 51],6.94,–
"CC(C)(C)OC(=O)N1CCC(c2ccc(Cn3ccc4cc(S(C)(=O)=O)ccc43)nc2)C(C)(C)C1 (stereo not drawn) [Example 46, tert-Butyl 3,3-dimethyl-4-[2-(5-methanesulfonylindol-1-ylmethyl)pyridin-5-yl]piperidine-1-carboxylate]",6.95,–
"CC(C)(C)OC(=O)N1CCC(c2ccc(Cn3cc4cc(S(C)(=O)=O)ccc4n3)nc2)CC1 [Example 22, tert-Butyl 4-[2-(5-methanesulfonylindazol-2-ylmethyl)pyridin-5-yl]piperidine-1-carboxylate]",6.34,–
"COC(=O)c1ccc2c(ccn2Cc2ncc(C3CCN(C(=O)OC(C)(C)C)CC3)cc2F)c1 [Example 71, tert-Butyl 4-[3-fluoro-2-[5-(methoxycarbonyl)indol-1-ylmethyl)pyridin-5-yl]piperidine-1-carboxylate]",6.72,–
"Cc1cc(S(C)(=O)=O)cc2ccn(Cc3ccc(C4CCN(C(=O)OC(C)(C)C)CC4)cn3)c12 [Example 26, tert-Butyl 4-[2-(5-methanesulfonyl-7-methylindol-1-ylmethyl)pyridin-5-yl]piperidine-1-carboxylate]",7.23,–
"CC(C)(C)OC(=O)N1CCC(c2ccc(Cn3ccc4cc(-n5cnnn5)cc(F)c43)nc2)CC1 [Example 41, tert-Butyl 4-[2-[7-fluoro-5-(tetrazol-1-yl)indol-1-ylmethyl]pyridin-5-yl]piperidine-1-carboxylate]",8.43,excellent GPR119 agonist effect
"CC(C)(C)OC(=O)N1CCC(F)(c2ccc(Cn3ccc4cc(S(C)(=O)=O)ccc43)nc2)CC1 [Example 76, tert-Butyl 4-fluoro-4-[2-(5-methanesulfonylindol-1-ylmethyl)pyridin-5-yl]piperidine-1-carboxylate]",7.37,–

# Further compounds by rising pEC50, results first:
pEC50,GPR119 agonist effect (in words) (statement in words on Tables 10 to 13),Structure (SMILES)
6.43,–,"CC(C)(C)OC(=O)N1CCC(c2ccc(Cn3ccc4cc(S(C)(=O)=O)ccc43)nc2)C1 (stereo not drawn) [Example 50, tert-Butyl 3-[2-(5-methanesulfonylindol-1-ylmethyl)pyridin-5-yl]pyrrolidine-1-carboxylate]"
6.53,–,"CC(C)(C)OC(=O)N1CCC(c2ccc(Cn3ccc4cc(S(C)(=O)=O)cc(C(F)(F)F)c43)nc2)CC1 [Example 49, tert-Butyl 4-[2-(5-methanesulfonyl-7-trifluoromethylindol-1-ylmethyl)pyridin-5-yl]piperidine-1-carboxylate]"
7.01,–,"C[C@H]1C=C(c2ccc(Cn3ccc4cc(S(C)(=O)=O)ccc43)nc2)C[C@H](C)N1C(=O)OC(C)(C)C [Example 68, tert-Butyl (2S,6S)-2,6-dimethyl-4-[2-(5-methanesulfonylindol-1-ylmethyl)pyridin-5-yl]-3,6-dihydro-2H-pyridine-1-carboxylate]"
7.09,–,"Cc1nc(S(C)(=O)=O)cc2ccn(Cc3ccc(C4CCN(C(=O)OC(C)(C)C)CC4)cn3)c12 [Example 28, tert-Butyl 4-[2-(5-methanesulfonyl-7-methyl-1H-pyrrolo[2,3-c]pyridin-1-ylmethyl)pyridin-5-yl]piperidine-1-carboxylate]"
7.31,–,"CC(C)c1nc(N2CCC(c3ccc(Cn4ccc5cc(S(C)(=O)=O)ccc54)nc3)CC2)no1 [Example 16, 5-Isopropyl-3-[4-[2-(5-methanesulfonylindol-1-ylmethyl)pyridin-5-yl]piperidin-1-yl]-[1,2,4]oxadiazole]"
7.34,–,"CC(C)OC(=O)N1CC=C(c2ccc(Cn3ccc4cc(-n5cnnn5)cc(F)c43)nc2)C(C)C1 (stereo not drawn) [Example 67, Isopropyl 4-[2-[7-fluoro-5-(tetrazol-1-yl)indol-1-ylmethyl]pyridin-5-yl]-3-methyl-3,6-dihydro-2H-pyridine-1-carboxylate]"
7.44,–,"CC(C)(C)OC(=O)N1CCC(c2cnc(Cn3ccc4cc(S(C)(=O)=O)ccc43)c(F)c2)CC1 [Example 13, tert-Butyl 4-[3-fluoro-2-(5-methanesulfonylindol-1-ylmethyl)pyridin-5-yl]piperidine-1-carboxylate]"
7.52,–,"CCc1cnc(N2CCC(c3ccc(Cn4ccc5cc(S(C)(=O)=O)cc(F)c54)nc3)CC2)nc1 [Example 34, 5-Ethyl-2-[4-[2-(7-fluoro-5-methanesulfonylindol-1-ylmethyl)pyridin-5-yl]piperidin-1-yl]pyrimidine]"
7.58,–,"CC(C)(C)OC(=O)N1CCC(c2ccc(Cn3ccc4cc(-n5cncn5)ccc43)nc2)CC1 [Example 56, tert-Butyl 4-[2-[5-(1,2,4-triazol-1-yl)indol-1-ylmethyl]pyridin-5-yl]piperidine-1-carboxylate]"
7.73,–,"CC(C)(C)OC(=O)N1CCC(c2ccc(Cn3ccc4cc(-n5cnnn5)ccc43)nc2)CC1 [Example 20, tert-Butyl 4-[2-[5-(tetrazol-1-yl)indol-1-ylmethyl]pyridin-5-yl]piperidine-1-carboxylate]"
7.87,–,"CC1CN(C(=O)OC(C)(C)C)CCC1c1ccc(Cn2ccc3cc(S(C)(=O)=O)ccc32)nc1 (stereo not drawn) [Example 44, tert-Butyl 4-[2-(5-methanesulfonylindol-1-ylmethyl)pyridin-5-yl]-3-methylpiperidine-1-carboxylate]"
7.93,–,"CCc1cnc(N2CCC(c3ccc(Cn4ccc5cc(S(C)(=O)=O)ccc54)nc3)CC2)nc1 [Example 30, 5-Ethyl-2-[4-[2-(5-methanesulfonylindol-1-ylmethyl)pyridin-5-yl]piperidin-1-yl]pyrimidine]"
7.97,–,"CC(C)(C)OC(=O)N1CCC(c2ccc(Cn3ccc4cc(S(C)(=O)=O)c(F)c(F)c43)nc2)CC1 [Example 55, tert-Butyl 4-[2-(6,7-difluoro-5-methanesulfonylindol-1-ylmethyl)pyridin-5-yl]piperidine-1-carboxylate]"
